Earlier results on one compound are cited in patent publication US20070213332A1, “Prodrugs Of Substituted Amino Heterobicycles Which Modulate The Function Of The Vanilloid-1 Receptor (Vr1)” (priority 2004, published 2007).

For the series, the target named is VR1 (Rattus norvegicus, UniProt O35433). The note with it: Walpole et al., J. Med. Chem., 37:1942, 1994.
VR1, sequence (O35433 whole entry): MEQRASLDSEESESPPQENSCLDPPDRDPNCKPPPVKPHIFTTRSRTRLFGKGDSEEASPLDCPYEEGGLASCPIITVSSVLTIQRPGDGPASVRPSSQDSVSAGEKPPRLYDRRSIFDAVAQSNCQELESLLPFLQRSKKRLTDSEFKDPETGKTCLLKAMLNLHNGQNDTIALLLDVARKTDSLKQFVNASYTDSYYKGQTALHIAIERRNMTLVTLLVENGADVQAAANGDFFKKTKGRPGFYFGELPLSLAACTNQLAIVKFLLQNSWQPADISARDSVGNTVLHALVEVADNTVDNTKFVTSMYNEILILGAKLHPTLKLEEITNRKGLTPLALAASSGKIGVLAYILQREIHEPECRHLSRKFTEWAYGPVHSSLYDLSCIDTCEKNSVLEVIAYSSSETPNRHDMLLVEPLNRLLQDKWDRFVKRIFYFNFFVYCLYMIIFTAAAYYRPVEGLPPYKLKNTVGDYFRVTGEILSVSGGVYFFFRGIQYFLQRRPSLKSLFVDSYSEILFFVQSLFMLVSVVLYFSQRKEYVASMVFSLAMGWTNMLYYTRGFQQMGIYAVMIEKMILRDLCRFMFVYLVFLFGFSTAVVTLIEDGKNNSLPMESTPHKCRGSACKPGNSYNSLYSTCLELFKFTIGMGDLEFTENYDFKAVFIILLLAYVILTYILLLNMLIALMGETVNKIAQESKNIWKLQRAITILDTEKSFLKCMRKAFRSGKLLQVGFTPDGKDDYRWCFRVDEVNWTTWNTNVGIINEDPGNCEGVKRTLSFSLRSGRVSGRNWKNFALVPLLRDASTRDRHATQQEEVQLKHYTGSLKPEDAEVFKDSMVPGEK

In general, IC50 refers to the concentration at which inhibition is half-maximal. Turning to `Oc1cc2c(cc1O)CN(C(=S)NCCc1ccc(Cl)cc1)CCC2` [capsazepine], the IC50 is 420 nM.
